# According to publication PMC12281485, “High-Throughput Screening of Potent Drug-like Molecules Targeting 17β-HSD10 for the Treatment of Alzheimer’s Disease and Cancer” (ACS Chemical Biology, 2025):
# Like-named read-outs stand apart in the source and are kept apart here.
# Tests used:
# [1] = Alamar Blue cell viability assay; assay type: cell-based, human; conditions: human, HEK293 cells overexpressing 17β-HSD10, 50 μM compound, n = 3 ± SD, read-out: Alamar Blue % viability (50 μM dose)
# Experimental: Cell viability was assessed via fluorescence change using the commercially available Alamar Blue from ThermoFisher. HEK293 cells overexpressing 17β-HSD10 were cultured in phenol-red free media (10% FBS, 1 mM sodium pyruvate, 100 units penicillin, 0.1 mg mL^–1 streptomycin, and 2 mM L-glutamine) and seeded at a density of 10,000 cells per well (100 μL, 96-well plates). […] Treated cells were then incubated at 37 °C and CO2 (5%) for 24 h before the assay was performed as per the manufacturer’s instructions. Fluorescence was measured at 530 nm excitation and 590 nm emission using the SpectraMaxM2e spectrophotometer.
# [2] = system: HEK293 cells overexpressing 17β-HSD10; assay: LDH cytotoxicity assay; assay type: cell-based, human; conditions: 50 μM compound, 24 h, n = 3 ± SD
# Experimental: Cell cytotoxicity was assessed via the measurement of LDH leakage into the culture medium using a commercially available kit from Pierce (Thermo Scientific cat no. 88953). This was carried out in accordance with the kit guidelines, with the activity of LDH being calculated from the change in absorbance at […]. Human embryonic kidney (HEK293) cells overexpressing 17β-HSD10 were cultured in phenol-red free media (10% FBS, 1 mM sodium pyruvate, 100 units penicillin, 0.1 mg mL^–1 streptomycin, and 2 mM L-glutamine) and seeded at a density of 10,000 cells per well (100 μL, 96-well plates). […] Treated cells were then incubated at 37 °C and CO2 (5%) for 24 h before the LDH assay was performed as per the manufacturer’s instructions. Spontaneous control (water) and maximum control (lysis buffer) were used in accordance with the kit guide. Absorbance was measured at 490 and 680 nm using the SpectraMaxM2e spectrophotometer. The measured LDH activity was used to calculate %cytotoxicity using the following equation (eq ): %cytotoxicity=(compoundtreatedLDHactivity−spontaneousLDHactivity)/(maximumLDHactivity−spontaneousLDHactivity)×100 1
# 17β-HSD10 [3] = biological target: T1, 17β-HSD10 (Homo sapiens, UniProt Q99714); assay: 17β-HSD10 enzyme inhibition dose-response assay (acetoacetyl-CoA/NADH, absorbance 340 nm); assay type: biochemical
# T1 construct: Recombinant 17β-HSD10 was expressed and purified as previously described in Aitken et al; made in house
# T1 sequence (Q99714 1-261): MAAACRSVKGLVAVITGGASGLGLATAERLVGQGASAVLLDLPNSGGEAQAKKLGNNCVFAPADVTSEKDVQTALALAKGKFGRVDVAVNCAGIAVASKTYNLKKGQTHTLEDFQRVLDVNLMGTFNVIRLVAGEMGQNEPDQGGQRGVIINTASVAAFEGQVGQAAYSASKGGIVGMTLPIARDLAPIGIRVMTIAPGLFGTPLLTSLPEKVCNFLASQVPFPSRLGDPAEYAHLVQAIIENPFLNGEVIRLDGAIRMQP
# Experimental: Recombinant 17β-HSD10 was expressed and purified as previously described in Aitken et al.
# 17β-HSD10 screening was carried out as described in Aitken et al. with the exception that experiments were also conducted in clear-bottom 1536-well low-volume microplates (Corning) with a final assay volume of 20 μL. For primary screening, an endpoint assay format was adopted, in which an Echo acoustic liquid dispenser (Labcyte) was used to transfer 20 nL of either DMSO control […] or test compounds (10 μM) to the assay plate. 10 μL of the 17β-HSD10 enzyme in an assay buffer (2.5 nM) was then added to the plates using the Preddator liquid handling robot (Redd and Whyte), and plates were incubated at RT for 15 min. 10 μL of the substrate mixture (100 μM acetoacetyl-CoA and 100 μM NADH) was added with the Preddator. To start the reaction, the plates were left to incubate for 35 min at RT before the absorbance at 340 nm was read on the EnVision plate reader (PerkinElmer). For the kinetic assay format and dose-response follow-up experiments, the same protocol was adopted, except that the absorbance at 340 nm was monitored constantly for 45 min from immediately after the reaction was started.
# 17β-HSD10 [4] = biological target: T1, 17β-HSD10; assay: (−)-CHANA fluorescence assay of cellular 17β-HSD10 activity; assay type: cell-based; conditions: read-out: cellular 17β-HSD10 activity mean pEC50 (converted)
# Experimental: (−)–CHANA ((−)-cyclohexenyl amino naphthalene alcohol) is a fluorogenic probe that can be used to detect 17β-HSD10 activity in living cells. HEK293 17β-HSD10 cells were seeded at a density of 10,000 cells per well (100 μL, 96-well black plates) in phenol-red free media (10% FBS, 1 mM sodium pyruvate, 100 units penicillin, 0.1 mg mL^–1 streptomycin, and 2 mM L-glutamine). […] The fluorogenic probe (−)–CHANA was then added to each well to give a final assay concentration of 20 μM. Fluorescence was immediately measured using the FLUOstar Optima microplate reader (excitation = 380 nm, emission = 520 nm, orbital averaging = 3 mm), and the initial reaction was monitored for 3–4 h. EC50 was calculated from the control-subtracted triplicates using nonlinear regression (four parameters) of GraphPad Prism 5 software. The Final EC50 and SEM values were obtained as a mean of at least three independent measurements.
# [5] = Mouse hepatocyte metabolic stability; assay type: in vitro ADME; design: k (elimination constant): unit not given here; conditions: mouse hepatocytes
# Experimental: Hepatocyte isolation, hepatocyte incubations for metabolic stability, plasma protein binding (PPB) experiments, and LC/MS sample analysis were carried out as previously described in Brandon et al. and MacLeod et al.
# XLfit (IDBS, UK) was used to calculate the exponential decay and the rate constant (k) from the ratio of the peak area of the test compound to the internal standard at each time point. […] Verapamil, 7-ethoxycoumarin, 7-hydroxycoumarin, and phthalazine were used as positive controls to confirm acceptable assay performance. […] Values were transferred to RStudio v1.3.1093 (Posit, Boston, MA, USA) for generation of scatter plots and heatmaps using the ggplot2 package (Wickham 2016).
# [6] = Table 3, chemically modified singleton hit compound series, read-out: 17β-HSD10 pIC50 (converted)
# [7] = Table 4, 17β-HSD10 overexpressing HEK293 cells, CHANA fluorescence assay
# [8] = Table 2, chemically modified cluster hit compounds, read-out: 17β-HSD10 pIC50 (converted)
# [9] = Table 1, primary screening assay, resynthesized HTS hits, read-out: 17β-HSD10 pIC50 (converted)
SMILES,"viability at 24 h, 50 μM [1]",LDH % toxicity (50 μM dose) [2],IC50 (17β-HSD10 [3]; [6]),EC50 (17β-HSD10 [4]; [7]),IC50 (17β-HSD10 [3]; [8]),other results
COc1cccc(-c2ccccc2C2CCCN2C(=O)c2sccc2Cl)c1 (racemic) [ESC1002432],80.61 ± 0.78%,4.24 ± 0.02%,,,,
O=C(c1sccc1Cl)N1CCCC1c1ccccc1-c1cc(O)cc(F)c1 (racemic) [ESC1002776],65.6 ± 1.67%,20.00 ± 0.11%,40.7 nM,228 nM,,
Cc1ccc(C(=O)N(CC(C)C)c2cccc(N(C)Cc3cnc[nH]3)c2)cc1 [ESC1002032],,,,,251 nM,
CC(C)CN(C(=O)c1ccncc1)c1cccc(N(C)Cc2cnc[nH]2)c1 [ESC1002034],,,,,,IC50 (17β-HSD10 [3]; [9]): 1580 nM
COc1cccc(C(=O)N(CC(C)C)c2cccc(N(C)Cc3cnc[nH]3)c2)c1 [ESC1002038],,,,,,IC50 (17β-HSD10 [3]; [9]): 2000 nM
CC(C)CN(C(=O)c1ccc(Cl)cc1F)c1cccc(N(C)Cc2cnc[nH]2)c1 [ESC1002042],,,,,316 nM,"LipE (17β-HSD10 [3]; Table 1, lipophilic efficiency): 1.46"
O=C(c1ccccc1F)N1CCCc2ccc(NCc3cnc[nH]3)cc21 [ESC1002081],,,,,,17β-HSD10 inhibitory activity (in words) (17β-HSD10 [3]): potency was abolished
COc1ccc(-c2ccccc2[C@@H]2CCCN2C(=O)c2sccc2C)cc1 [ESC1002089],82 ± 2.23%,5.40 ± 0.05%,331 nM,1790 nM,,fold improvement in activity/potency over hit ESC1002082 (17β-HSD10 [3]; relative to ESC1002082): ~3 fold
Cc1ccsc1C(=O)N1CCC[C@H]1c1ccccc1-c1cccnc1 [ESC1002090],,,1150 nM,,,
COc1ccc(-c2ccccc2[C@@H]2CCCN2C(=O)c2sccc2C)cn1 [ESC1002161],,,,,,"17β-HSD10 pIC50 (17β-HSD10 [3]; Supplementary B, Table S1 and text, enantiomers): < 4.7"
CC(C)CN(C(=O)C1CCCCC1)c1cccc(N(C)Cc2cnc[nH]2)c1 [ESC1002166],78.9 ± 0.9%,4.55 ± 0.02%,,976 nM,955 nM,
COc1ccc(C(=O)N(CC(C)C)c2cccc(N(C)Cc3cnc[nH]3)c2)cc1 [ESC1002182],85.4 ± 3.61%,4.73 ± 0.01%,,1670 nM,331 nM,
Cc1nc[nH]c1CN(C)c1cccc(N(CC(C)C)C(=O)c2ccccc2F)c1 [ESC1002204],96.7 ± 3.61%,5.05 ± 0.01%,,1360 nM,398 nM,"k (elimination constant) [5]: 0.11; Heps category ([5]; metabolism category): high; Cl (clearance) ([5]; limits of quantitation 0.5 and 50): >50 mL/min/g liver; half-life ([5]; read-out: T1/2 (half-life)): 6.2 min; IC50 (17β-HSD10 [3]; Table 5, read-out: mean 17β-HSD10 pIC50 (converted)): 398 nM; EC50 (17β-HSD10 [4]; Table 5, HEK293 17β-HSD10 cells, CHANA assay): 1360 nM"
CC(C)CN(C(=O)c1ccccc1F)c1cccc(N(C)Cc2ccn[nH]2)c1 [ESC1002205],82.52 ± 0.57%,5.84 ± 0.01%,,3130 nM,891 nM,
COc1ccc(-c2ccccc2C2CCCN2C(=O)c2sccc2C)cc1 (stereo not shown) [ESC1002332],87.7 ± 1.67%,3.52 ± 0.01%,,7220 nM,166 nM,
COc1cccc(-c2ccccc2C2CCCN2C(=O)c2sccc2C)c1 (stereo not shown) [ESC1002338],83 ± 1.25%,4.64 ± 0.01%,,1150 nM,,"IC50 (17β-HSD10 [3]; enzyme screening assay, read-out: IC50): 191 nM"
Cc1ccsc1C(=O)N1CCC[C@H]1c1ccccc1-c1cnn(C)c1 [ESC1002424],,,933 nM,,,LipE (17β-HSD10 [3]): 2.1
COc1cccc(-c2ccccc2[C@H]2CCCN2C(=O)c2ccccc2C)c1 [ESC1002434],,,,,,17β-HSD10 inhibitory activity (in words) (17β-HSD10 [3]): not tolerated
COc1ccc(C(=O)N(CC(C)C)c2cccc(N(C)Cc3c[nH]cn3)c2)c(F)c1 [ESC1002576],79.1 ± 0.99%,5.19 ± 0.01%,,599 nM,245 nM,
COc1cccc(-c2ccccc2C2CCCN2C(=O)c2sccc2Cl)c1 (stereo not shown) [ESC1002606],78 ± 1.09%,5.09 ± 0.02%,,,,
COc1cccc(-c2ccccc2[C@@H]2CCCN2C(=O)c2[nH]ncc2Cl)c1 [ESC1002626],,,457 nM,,,
CC(C)CN(C(=O)c1ccccc1F)c1cccc(NCc2c[nH]cn2)c1 [ESC1002631],,,,,9330 nM,
O=C(c1sccc1Cl)N1CCC[C@H]1c1ccccc1-c1cccc(O)c1 [ESC1002666],79.3 ± 1.03%,4.49 ± 0.02%,58.9 nM,138 nM,,
COc1cccc(-c2ccccc2C2CCCN2Cc2sccc2F)c1 (stereo not shown) [ESC1002695],,,,,,17β-HSD10 inhibitory activity (in words) (17β-HSD10 [3]): lost all activity
O=C(c1sccc1Cl)N1CCCC1c1ccccc1-c1ccc(F)c(O)c1 (stereo not shown) [ESC1002775],81.53 ± 0.56%,2.54 ± 0.004%,49 nM,449 nM,,
O=C(c1sccc1Cl)N1CCCC1c1ccccc1-c1cc(O)cc(F)c1 (stereo not shown) [ESC1002801],82.55 ± 0.62%,5.50 ± 0.01%,51.3 nM,50 nM,,
